Test results taken from patent US20090105278A1, “Selective inhibitors of human corticosteroid syntheses” (Universitat Des Saarlandes, priority 2004, published 2009).
Structures can show the parent of a compound that is named as a salt.

Target: T1, human CYP17 (Homo sapiens, UniProt P05093)
T1 construct: made in house; host or cells: E. coli pJL17/OR (membrane fraction)
T1 sequence (P05093 1-508): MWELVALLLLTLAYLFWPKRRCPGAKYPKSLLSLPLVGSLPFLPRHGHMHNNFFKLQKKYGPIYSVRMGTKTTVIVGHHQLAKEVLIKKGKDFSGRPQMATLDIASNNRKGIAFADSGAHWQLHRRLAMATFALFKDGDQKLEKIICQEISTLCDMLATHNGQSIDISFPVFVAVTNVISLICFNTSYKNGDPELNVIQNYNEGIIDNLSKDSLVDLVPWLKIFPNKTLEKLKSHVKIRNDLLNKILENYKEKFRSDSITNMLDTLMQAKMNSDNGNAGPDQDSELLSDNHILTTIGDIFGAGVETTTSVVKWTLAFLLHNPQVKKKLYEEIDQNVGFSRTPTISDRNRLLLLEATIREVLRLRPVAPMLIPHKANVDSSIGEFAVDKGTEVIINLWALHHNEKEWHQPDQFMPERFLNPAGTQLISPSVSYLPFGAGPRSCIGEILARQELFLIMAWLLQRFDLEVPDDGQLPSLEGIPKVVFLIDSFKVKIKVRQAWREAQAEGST
Experiment: Percent inhibition of CYP17 (membrane fraction of E. coli pJL17/OR)
Assay type: biochemical
Conditions: E. coli which expresses human CYP17; 5 mg/ml protein; progesterone substrate 2.5 μM; inhibitor 2.5 μM
Experimental: The recombinantly altered E. coli strain pJL17/OR, in which human CYP17 and rat NADPH-P450-reductase were coexpressed, was grown and stored according to the method of Ehmer et al. (Ehmer, P. B. et al., J. Steroid Biochem. Mol. Biol. 75: 57-63 (2000)). For isolating the membrane fraction, 5 ml of the bacterial cell suspension with an OD578 of 50 was washed with phosphate buffer (0.05 M; pH 7.4; 1 mM MgCl2; 0.1 mM EDTA and 0.1 mM DTT). The bacteria were removed by centrifugation and resuspended in 10 ml of ice cold TES buffer (0.1 M tris-acetate; pH 7.8; 0.5 mM EDTA; 0.5 M sucrose). Four milligrams of lysozyme in 10 ml of ice cold water was added to obtain a final concentration of 0.2 mg/ml. This was followed by incubation for 30 minutes under continued shaking on ice. The spheroblasts were obtained by a renewed centrifugation step at 12,000 g for 10 min and again resuspended in 3 ml of ice cold phosphate buffer (composition see above, additionally 0.5 mM PMSF).
After freezing and thawing, the cells were lysed on ice with an ultrasonic disintegrator. The whole cells and the cell debris were centrifuged off at 3000 g for 7 min. The supernatant was again centrifuged at 50,000 g for 20 min at 4° C. A membrane pellet sedimented and was resuspended in 2 ml of phosphate buffer (composition see above) with […] by means of an Ultra-Turrax mixer. […] Aliquots with an approximate protein concentration of 5 mg/ml were stored at −70° C. until use.
Control incubations were performed in parallel with 5 μl DMSO without urea. The reaction was started by adding 50 μl of a membrane suspension diluted 1 to 5 in phosphate buffer (0.8 to 1 mg of protein per ml). After thoroughly mixing the components, the mixture was incubated at 37° C. for 30 min.
The steroids were extracted with 1 ml of EtOAc. […] After the centrifugation, 800 μl of the organic phase was removed, placed into a new vessel and evaporated to dryness. The samples were dissolved in 50 μl of a water-methanol mixture (1:1) and analyzed by HPLC. The substrate conversion was calculated from the ratio of the areas of the product peaks (17α-hydroxyprogesterone and 16α-hydroxyprogesterone) to that of the substrate peak. The activity of the inhibitors was calculated from the reduced substrate conversion after the addition of inhibitors in accordance with the following formula: […]

| Molecule | % Inhibition human CYP17 [%] |
| --- | --- |
| 5-[(Z)-(5-Fluoro-2,3-dihydro-1H-indene-1-ylidene)methyl]-1H-imidazolium oxalate [Compound 47b] | 11 |

Target: T2, human CYP11B2 (Homo sapiens, UniProt P19099)
T2 sequence (P19099 25-503): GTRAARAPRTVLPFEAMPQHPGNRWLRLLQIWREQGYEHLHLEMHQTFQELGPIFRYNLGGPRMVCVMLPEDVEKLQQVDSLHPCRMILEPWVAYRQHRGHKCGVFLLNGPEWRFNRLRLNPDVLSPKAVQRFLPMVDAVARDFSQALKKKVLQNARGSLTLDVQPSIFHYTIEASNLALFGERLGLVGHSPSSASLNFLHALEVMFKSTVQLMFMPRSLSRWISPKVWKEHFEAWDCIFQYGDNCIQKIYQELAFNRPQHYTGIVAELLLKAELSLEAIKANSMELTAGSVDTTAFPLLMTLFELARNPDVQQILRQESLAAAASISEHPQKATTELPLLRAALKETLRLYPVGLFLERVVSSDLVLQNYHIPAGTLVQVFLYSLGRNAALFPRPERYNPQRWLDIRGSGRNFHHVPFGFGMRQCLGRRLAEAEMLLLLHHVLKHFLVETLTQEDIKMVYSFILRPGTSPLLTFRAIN
Experiment: Screening test in transgenic fission yeast (S. pombe PE1) expressing human CYP11B2
Assay type: cell-based
Parameters: expressed in transfected cells
Conditions: S. pombe cells which express human CYP11B2; deoxycorticosterone substrate 100 nM; inhibitor 500 nM
Experimental: 492.5 μl of this cell suspension was admixed with 5 μl of inhibitor solution (50 μM of the compound to be tested in ethanol or DMSO) and incubated at 32° C. for 15 min. Controls were admixed with 5 μl of ethanol. […] The test was quenched by extracting the sample with 500 μl of EtOAc. After centrifugation (10,000 g, 2 min), the EtOAc phase was removed and evaporated to dryness. […] The reaction of the substrate to form corticosterone was analyzed by HPTLC (see below).
The quantification of the spots for the substrate deoxycorticosterone and the products corticosterone (and, if detectable, 18-hydroxycorticosterone and aldosterone) was effected with the related evaluation program AIDA. […] The calculation of the conversion rate was effected according to equation 1.
The plate was developed twice with the mobile solvent chloroform:methanol:water (300:20:1). Unlabeled 11-deoxycorticosterone and corticosterone were applied as a reference for the CYP11B1 reaction. For the CYP11B2 reaction, 11-deoxycorticosterone, corticosterone, 18-hydroxycorticosterone and aldosterone were used as references. The detection of the unlabeled references was effected at 260 nm. Subsequently, imaging plates (BAS MS2340, for ^14C samples, Raytest, Straubenhardt, Germany) were exposed to the HPTLC plates for 48 h. The imaging plates were scanned with the phosphoimager system Fuji FLA 3000 (Raytest, Straubenhardt, Germany), and the steroids were quantified.

| Molecule | % Inhibition human hCYP11B2 [%] |
| --- | --- |
| 5-[(Z)-(5-Fluoro-2,3-dihydro-1H-indene-1-ylidene)methyl]-1H-imidazolium oxalate [Compound 47b] | 58 |

System: not given
Experiment: not given
Conditions: not given

| Molecule | melting point [°C] |
| --- | --- |
| Fc1ccc2c(c1)CC/C2=C/c1cccnc1 (as salt: hydrochloride) [Compound 5b, 3-[(Z)-(5-Fluoro-2,3-dihydro-1H-indane-1-ylidene)methyl]pyridine Hydrochloride] | 245 |
| Fc1ccc2c(c1)CC/C2=C\c1ccncc1 (as salt: hydrochloride) [Compound 6a, 4-[(E)-(5-Fluoro-2,3-dihydro-1H-indane-1-ylidene)methyl]pyridine Hydrochloride] | 224 |
| Fc1ccc2c(c1)CC/C2=C/c1ccncc1 (as salt: hydrochloride) [Compound 6b, 4-[(Z)-(5-Fluoro-2,3-dihydro-1H-indane-1-ylidene)methyl]pyridine Hydrochloride] | 223 |
| Clc1ccc2c(c1)CC/C2=C\c1ccncc1 (as salt: hydrochloride) [Compound 8a, 4-[(E)-(5-Chloro-2,3-dihydro-1H-indane-1-ylidene)methyl]pyridine Hydrochloride] | 213 |
| Brc1ccc2c(c1)CC/C2=C/c1cccnc1 (as salt: hydrochloride) [Compound 9b, 3-[(Z)-(5-Bromo-2,3-dihydro-1H-indane-1-ylidene)methyl]pyridine Hydrochloride] | 243 |
| Brc1ccc2c(c1)CC/C2=C\c1ccncc1 (as salt: hydrochloride) [Compound 10a, 4-[(E)-(5-Bromo-2,3-dihydro-1H-indane-1-ylidene)methyl]pyridine Hydrochloride] | 266 |
| C(=C1/CCc2ccccc21)/c1cnc[nH]1 (as salt: hydrochloride) [Compound 42a, 5-[(E)-2,3-Dihydro-1H-indane-1-ylidenemethyl]-1H-imidazole] | 148 to 151 |
| C(=C1\CCc2ccccc21)/c1cnc[nH]1 (as salt: oxalate) [Compound 42b, 5-[(Z)-2,3-Dihydro-1H-ind-1-ylidenemethyl]-1H-imidazolium oxalate] | 196 |

Now from value to molecule:

| melting point [°C] | Molecule |
| --- | --- |
| 234 | Clc1ccc2c(c1)CC/C2=C\c1cccnc1 (as salt: hydrochloride) [Compound 7a, 3-[(E)-(5-Chloro-2.3-dihydro-1H-indane-1-ylidene)methyl]pyridine Hydrochloride] |
| 238 | Clc1ccc2c(c1)CC/C2=C/c1cccnc1 (as salt: hydrochloride) [Compound 7b, 3-[(Z)-(5-Chloro-2,3-dihydro-1H-indane-1-ylidene)methyl]pyridine Hydrochloride] |
| 241 | Brc1ccc2c(c1)CC/C2=C\c1cccnc1 (as salt: hydrochloride) [Compound 9a, 3-[(E)-(5-Bromo-2,3-dihydro-1H-indane-1-ylidene)methyl]pyridine Hydrochloride] |
| 220 | COc1ccc2c(c1)CC/C2=C/c1cccnc1 (as salt: hydrochloride) [Compound 11b, 3-[(Z)-(5-Methoxy-2,3-dihydro-1H-indane-1-ylidene)methyl]pyridine Hydrochloride] |
| 231 | Cc1cccc2c1CC/C2=C\c1cccnc1 (as salt: hydrochloride) [Compound 23a, 3-[(E)-(4-Methyl-2,3-dihydro-1H-indane-1-ylidene)methyl]pyridine Hydrochloride] |
| 234 | Fc1ccc2c(c1)CC/C2=C\c1cccc2cnccc12 (as salt: hydrochloride) [Compound 30a, 5-[(E)-(5-Fluoro-2,3-dihydro-1H-indane-1-ylidene)methyl]isoquinoline Hydrochloride] |
| 201 | Fc1ccc2c(c1)CC/C2=C/c1cccc2cnccc12 (as salt: hydrochloride) [Compound 30b, 5-[(Z)-(5-Fluoro-2,3-dihydro-1H-indane-1-ylidene)methyl]isoquinoline Hydrochloride] |
| 167 | C(=C1/CCc2ccccc21)/c1ccncc1 (as salt: oxalate) [Compound 2a, 4-[(E)-2,3-Dihydro-1H-indane-1-ylidenemethyl]pyridine Oxalate] |
| 208 | c1cncc(-c2ccc3cccc4c3c2CC4)c1 (as salt: salt) [Compound 50, 3-(1,2-Dihydroacenaphthylene-3-yl)pyridine] |

Target: T3, bovine adrenal CYP11B (Bos taurus, UniProt P15150)
T3 sequence (P15150 25-503): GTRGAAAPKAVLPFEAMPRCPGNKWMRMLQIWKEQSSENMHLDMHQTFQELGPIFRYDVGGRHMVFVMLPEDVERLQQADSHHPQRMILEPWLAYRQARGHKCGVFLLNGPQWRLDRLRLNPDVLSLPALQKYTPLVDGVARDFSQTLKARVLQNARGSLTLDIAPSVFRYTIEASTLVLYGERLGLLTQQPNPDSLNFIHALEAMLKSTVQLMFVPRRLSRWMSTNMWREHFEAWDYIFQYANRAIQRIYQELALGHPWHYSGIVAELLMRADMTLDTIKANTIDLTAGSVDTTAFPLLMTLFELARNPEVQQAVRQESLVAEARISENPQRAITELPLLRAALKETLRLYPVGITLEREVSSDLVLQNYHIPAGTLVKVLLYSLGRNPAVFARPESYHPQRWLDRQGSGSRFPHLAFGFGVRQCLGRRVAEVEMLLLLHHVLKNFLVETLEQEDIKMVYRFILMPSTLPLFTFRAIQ
Experiment: Percent inhibition of bovine CYP11B (adrenal mitochondria)
Conditions: bovine adrenal mitochondria, 1 mg/ml protein; corticosterone substrate 200 μM; inhibitor 1 μM

| Molecule | % Inhibition bovine bCYP11B [%] |
| --- | --- |
| 5-[(Z)-(5-Fluoro-2,3-dihydro-1H-indene-1-ylidene)methyl]-1H-imidazolium oxalate [Compound 47b] | 64 |

Same assay, conditions: read-out: % Inhibition bovine bCYP11B, bovine adrenal mitochondria, 1 mg/ml protein; corticosterone substrate 200 μM; inhibitor 1 μM

| Molecule | inhibition at 1 µM [%] |
| --- | --- |
| CC(=O)N1CCN(c2ccc(OCC3COC(Cn4ccnc4)(c4ccc(Cl)cc4Cl)O3)cc2)CC1 (stereo not drawn) [Ketoconazole, reference compound] | 78 |
